PMC8411703 (Frontiers in Pharmacology, 2021)

How the values were obtained:
[1] = Protocol: This study was a prospective, multicentric, PK/PD study. It included pediatric patients who were admitted to the pediatric ICU between July 2017 and November 2019 at two hospitals in Santiago, Chile. The Ethical Committee for Research of Clinica Las Condes approved this prospective study (approval number: M012017) and required signed written informed consent from each patient’s parents. […] Neonates were excluded.
Meropenem was administered as a 3-h infusion with intravenous doses of 20–40 mg/kg every 8 or 12 h. […] Both antibiotics’ doses were adjusted according to renal function. Blood samples were collected at 1 and 3 h post-infusion and before the following dose for meropenem.
Unbound meropenem plasma concentrations were determined by high-performance liquid chromatography (Agilent Infinity 1,260, Santa Clara, United States) with a UV detector. The methodology was adapted to the equipment conditions from available publications ([Elkhaïli et al., 1996]; [McWhinney et al., 2010]; [Wolff et al., 2013]) and validated according to the recommendations of the Bioanalytical Method Validation Guidance for Industry ([U.S. Department of Health and Human Services, 2018]). The stationary phase was a Zorbax Eclipse Plus C18 column (3.5 μm, 75 × 4.6 mm) and the mobile phase was acetonitrile with 10 mM ammonium acetate (pH 4.0) (5:95, organic solvent:buffer initiallity) in gradient to minute 7(50:50, organic solvent:buffer). Meropenem was detected by UV detection at 298 nm. The flow rate was 1.0 ml/min. […] Standard curves were prepared in blank human plasma. […] Meropenem in plasma samples was quantified using the peak area of standard samples for calibrations.
For both analytes, the measurement was performed on the free-drug, non-protein bound fraction.
Pharmacokinetic modelling was performed using PMetrics 1.5.0 with RStudio 0.99.902 and digital compiler Gfortran 5.2. […] Primary pharmacokinetic parameters of CL and Vd for the central compartment were calculated. Elimination from the central compartment and inter-compartmental distribution were modelled as first-order processes. Inter-compartmental distribution was described as rate of transfer from the unbound compartment to a peripheral compartment (Kcp) and rate of transfer from a peripheral compartment to the unbound compartment (Kpc). […] Volume of the peripheral compartment (Vp) was calculated as (Vc*Kcp)/Kpc, where Vc is the volume of the central compartment. Total Vd was calculated as the sum of Vc and Vp.
We selected the final model on the basis of minimizing the Akaike Information Criterion (AIC) and likelihood of the nested models (-2*Log-likelihood, -2*LL), with both criteria penalized by the number of parameters in the model. A reduction of -2*LL as calculated within Pmetrics was used for statistical comparison of nested models. We also factored bias (mean weighted predicted-observed error) and imprecision (bias-adjusted, mean weighted squared predicted-observed error) and correlation co-efficient into the selection of the final model. Shrinkage was calculated as the percentage of total variance in each model probability distribution.
Covariate model building was performed using sequential assessment of biologically plausible clinical characteristics. Continuous data was used for all covariates tested, with the exception of gender, which was male/female. The association of the covariates versus parameters was assessed by regression with linear or non-linear associations able to be used in the covariate model testing with inclusion based upon biological plausibility and a statistically significant improvement in log-likelihood. Inclusion age (months), weight (kg), height (cm), gender, C-reactive protein (mg/L), albumin (g/L), total bilirubin (mg/dl), serum creatinine (mg/dl), 24-h hydric balance (ml).

[2] = design: method as in Rybak, 2006; conditions: ref Rybak, 2006; cited from earlier work
[3] = in vivo; cited from earlier work
[4] = test system: Pseudomonas aeruginosa; conditions: in vivo
Protocol: For meropenem analysis, we used the plasma concentration at 1 h after the end of a 3-h infusion of the drug corresponding to a dosing interval of 50%.

[5] = pediatric ECMO patients, 11 PK profiles, population median

Compound | Kcp (rate of transfer central to peripheral compartment), vancomycin, mean ([1]; pediatric ECMO patients, 11 PK profiles, population mean) [h⁻¹] | Kcp, vancomycin, median [1, 5] [h⁻¹] | Kpc, vancomycin, median [1, 5] [h⁻¹] | elimination route [2] | CL (clearance of meropenem), median ([1]; human, in vivo) [mL/min/kg] | Kcp (rate of transfer central to peripheral compartment), meropenem, mean ([1]; human, in vivo) [h⁻¹] | Kcp, meropenem, median ([1]; human, in vivo) [h⁻¹] | Kpc (rate of transfer peripheral to central compartment), meropenem, mean ([1]; human, in vivo) [h⁻¹] | Kpc, meropenem, median ([1]; human, in vivo) [h⁻¹] | Vc (central volume of distribution of meropenem), median ([1]; human, in vivo) [L/kg] | Vd (vc + vp), meropenem, mean ([1]; human, in vivo) [L/kg] | Vp (Vc*kcp/kpc), meropenem, mean ([1]; human, in vivo) [L/kg] | meropenem clearance in most reported studies, range [3] [mL/min/kg] | PK profiles achieving PK/PD target fT 50% > 4 x MIC [4] [%]
CN[C@H](CC(C)C)C(=O)N[C@H]1C(=O)N[C@@H](CC(N)=O)C(=O)N[C@H]2C(=O)N[C@H]3C(=O)N[C@H](C(=O)N[C@H](C(=O)O)c4cc(O)cc(O)c4-c4cc3ccc4O)[C@H](O)c3ccc(c(Cl)c3)Oc3cc2cc(c3O[C@@H]2O[C@H](CO)[C@@H](O)[C@H](O)[C@H]2O[C@H]2C[C@](C)(N)[C@H](O)[C@H](C)O2)Oc2ccc(cc2Cl)[C@H]1O [vancomycin] | 0.483 | 0.481 | 0.286 | nearly completely renally eliminated | – | – | – | – | – | – | – | – | – | –
C[C@@H](O)[C@H]1C(=O)N2C(C(=O)O)=C(S[C@@H]3CN[C@H](C(=O)N(C)C)C3)[C@H](C)[C@H]12 [meropenem] | – | – | – | – | 2.4 | 1.37 | 1.30 | 1.25 | 1.34 | 0.289 | 0.606 | 0.317 | 2.17 to 17.55 | 91
